We go through 22 compounds from patent publication US5574062A, “Coumarin derivative and use thereof” (Morinaga Milk Industry Co., Ltd., priority 1993, dated 1996).

Each structure is given as a SMILES string. Values joined by “and” are separate entries in the source; they are usually repeats but may differ in a detail not shown here. Equal values may be shown once. Read-outs that look alike come from different tables or passages of the source.

One may read the IC50 as the concentration that gives 50% inhibition.

In experiment [1] the target is T1, 12-lipoxygenase (Rattus norvegicus, UniProt F1LQ70).
T1 construct: The platelets were then sonicated at 4° C. and centrifuged at 100,000×g for 30 minutes to obtain a supernatant as a 12-lipoxygenase enzyme solution; from tissue; host or cells: Sprague Dawley rat platelets (from aortic blood), sonicated, 100,000 x g supernatant
T1 sequence (F1LQ70 1-663): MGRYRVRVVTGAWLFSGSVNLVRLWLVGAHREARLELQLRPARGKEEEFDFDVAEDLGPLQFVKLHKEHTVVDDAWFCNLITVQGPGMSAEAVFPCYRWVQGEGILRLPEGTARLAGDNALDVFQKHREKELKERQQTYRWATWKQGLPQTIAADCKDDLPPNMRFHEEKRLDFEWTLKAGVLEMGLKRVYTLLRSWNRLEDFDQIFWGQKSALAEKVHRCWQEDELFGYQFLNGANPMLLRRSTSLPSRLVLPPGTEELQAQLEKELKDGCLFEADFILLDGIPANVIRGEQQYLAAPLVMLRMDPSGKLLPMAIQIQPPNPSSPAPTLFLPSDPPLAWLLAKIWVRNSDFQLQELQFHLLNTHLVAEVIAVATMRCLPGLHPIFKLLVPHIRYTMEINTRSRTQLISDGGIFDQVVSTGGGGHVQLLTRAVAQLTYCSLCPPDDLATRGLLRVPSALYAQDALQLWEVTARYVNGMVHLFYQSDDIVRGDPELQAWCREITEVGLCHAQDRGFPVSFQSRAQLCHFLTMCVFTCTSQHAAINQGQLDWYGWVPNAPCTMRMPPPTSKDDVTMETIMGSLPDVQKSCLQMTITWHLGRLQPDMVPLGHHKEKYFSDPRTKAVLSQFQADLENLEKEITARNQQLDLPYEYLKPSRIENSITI
As to the kind of experiment: 12-lipoxygenase inhibition assay (rat platelet supernatant, arachidonic acid, HPLC of 12-HETE). The experiment is classed as biochemical, Sprague Dawley male rat (platelets). The conditions noted are these: for maximum inhibition ratio of 12-lipoxygenase / inhibition at 10 µM: at a compound concentration of 10^-5 M, IC50 not obtained; for maximum inhibition ratio of 12-lipoxygenase: 10 µM; for inhibition at 10 µM: read-out: maximum inhibition ratio of 12-lipoxygenase. The protocol:
A Sprague Dawley male rat was anesthetized with ether and bled from abdominal aorta using a syringe filled with about one-tenth volume of 3.8% sodium citrate. Blood was centrifuged at 180×g for 15 minutes at room temperature to pellet sanguineous platelet blood plasma. The resultant supernatant was again centrifuged at 1800×g for 10 minutes at 4° C. The pelleted platelets were rinsed twice with a washing buffer (50 mM Tris-hydrochloric acid buffer containing 154 mM sodium chloride and 2 mM EDTA, pH: 7.4). The platelets were then suspended in one-twentieth volume of a resuspension buffer (50 mM Tris-hydrochloric acid buffer containing 154 mM sodium chloride and 5.5 mM glucose, pH: 7.4). The platelets were then sonicated at 4° C. and centrifuged at 100,000×g for 30 minutes to obtain a supernatant as a 12-lipoxygenase enzyme solution.
The enzyme solution described above was diluted with the resuspension buffer above mentioned to prepare an assay solution so as to include about 2 mU/ml of 12-lipoxygenase. To an aliquot (300 μl) of the assay solution was added 1 μl of a 3 mM indomethacin-ethanol solution, 1 μl of an aqueous 300 mM reduced-glutathione solution, and 3 μl of varied concentrated test compounds solution in ethanol. The resultant mixture was incubated at 37° C. for 5 minutes. Subsequently, 3 μl of a 2.5 mM arachidonic acid solution in ethanol was added to incubate with for another 5 minutes at 37° C., then the reaction was ceased by the addition of 600 μl of methanol. After being centrifuged at 10,000×g for 5 minutes, 12-hydroxyeicosatetraenoic acid recovered in the supernatant was separated with a reverse phase high-performance liquid chromatography equipped with a C-18 column and measured the absorption of diene at 234 nm to quantify the activity of 12-lipoxygenase.
As test compounds were used the compounds of the present invention prepared in the same methods as in Example 4, Example 5 and Example 8 and the compounds prepared in the same methods as in Comparative Examples 1-5, and as a control was used esculetin (purchased from Tokyo Kasei), a known compound represented by the following formula: [drawing 33] and the test was conducted at varied concentrations.
The enzyme solution was prepared according to the same manner as in Test Example 1.
The inhibition assay was performed according to the same method as described in Test Example 1 except that the same samples used in measurement of the 5-lipoxygensase activity were used to estimate IC50 values. […]
They were measured in the same method as in Test Example 1.

Experiment [2] deals with T2, 5-lipoxygenase (Rattus norvegicus, UniProt P12527).
T2 construct: host or cells: RBL-1 (rat basophilic leukemia cells)
T2 sequence (P12527 1-673): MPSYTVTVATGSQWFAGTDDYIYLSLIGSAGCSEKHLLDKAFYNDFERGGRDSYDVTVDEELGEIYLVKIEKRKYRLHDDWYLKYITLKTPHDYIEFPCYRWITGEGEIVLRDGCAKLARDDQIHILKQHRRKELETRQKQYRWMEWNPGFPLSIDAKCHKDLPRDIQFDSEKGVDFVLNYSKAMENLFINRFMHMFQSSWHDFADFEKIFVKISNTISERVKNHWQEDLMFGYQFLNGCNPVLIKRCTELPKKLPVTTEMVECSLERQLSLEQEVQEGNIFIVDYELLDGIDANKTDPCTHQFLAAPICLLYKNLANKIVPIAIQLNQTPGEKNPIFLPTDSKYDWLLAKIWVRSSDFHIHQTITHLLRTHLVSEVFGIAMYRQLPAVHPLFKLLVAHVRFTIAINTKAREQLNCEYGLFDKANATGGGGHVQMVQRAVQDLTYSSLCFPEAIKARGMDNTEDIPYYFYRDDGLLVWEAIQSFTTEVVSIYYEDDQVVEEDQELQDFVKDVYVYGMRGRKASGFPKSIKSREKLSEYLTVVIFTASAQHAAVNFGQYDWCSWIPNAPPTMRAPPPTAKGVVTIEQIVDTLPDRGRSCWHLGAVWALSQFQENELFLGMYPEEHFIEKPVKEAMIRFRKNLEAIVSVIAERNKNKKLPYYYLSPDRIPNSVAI
Put plainly: 5-lipoxygenase inhibition assay (RBL-1 supernatant, arachidonic acid, HPLC of 5-HETE). The conditions noted are these: Test Example 2, Table 2; read-out: IC50 value of 5-lipoxygenase. The experiment is classed as biochemical, rat (basophilic leukemia cells RBL-1, ATCC CRL1378). The protocol:
Rat basophilic leukemia cells (RBL-1, ATCC CRL1378) were cultured in Dulbecco modified Eagle's medium containing 10% new-born bovine serum.
Cultured cells were collected and washed twice with a 50 mM Tris-buffered saline (containing 154 mM sodium chloride, pH: 7.4, hereinafter described as TBS). The cell suspension (4×10^7 cells/ml) was then sonicated and centrifuged at 10,000×g for 10 minutes.
The resultant supernatant was used to prepare an assay solution.
To an aliquot (15 μl) of the enzyme solution (40 mU/ml equivalent) was added 185 μl of TBS, 50 μl of a 2 mM adenosine triphosphate in TBS, 50 μl of a 12 mM calcium chloride in TBS, 1 μl of a 3 mM indomethacin in ethanol solution, 1 μl of an aqueous 300 mM reduced glutathione solution, and 3 μl of varied concentrated test compounds solution in ethanol. The resultant mixture was incubated at 37° C. for 5 minutes. Subsequently, 3 μl of a 2.5 mM arachidonic acid solution in ethanol was added to incubate the mixture for 2 minutes at 37° C. The reaction was ceased by the addition of 600 μl of methanol. After being centrifuged at 10,000×g for 5 minutes, 5-hydroxyeicosatetraenoic acid recovered in the supernatant was separated with a reverse phase high-performance liquid chromatography equipped with a C-18 column and measured the absorption of diene at 234 nm to quantify the activity of the enzyme.
Using the compounds of the present invention prepared in the same manner as in Examples 1-30, and Examples 33-36 as test samples and known baicalein (purchased from Wako Junyaku Kogyo) represented by the following formula 30 as a control: [drawing 34] the tests were performed for dose dependent inhibition to estimate IC50 values
It was prepared in the same method as in Test Example 2.
They were measured in the same method as in Test Example 2.

Where [3] appears, read: Test Example 1, Table 1 and text, read-out: 12-lipoxygenase IC50 value.
[4] abbreviates: Test Example 2, Table 2, read-out: IC50 value of 12-lipoxygenase.
Where [5] appears, read: Test Example 3, Table 11, value belongs to the deacylated compound, read-out: 12-lipoxygenase inhibiting activities of deacylated compounds (IC50 values).

In the case of `COc1ccc2cc(-c3ccccc3)c(=O)oc2c1OC` [Comp. Example 1, reference compound], in experiment [1] (listed as Comparative Example 1, 10 µM), the “maximum inhibition ratio of 12-lipoxygenase” value is “less than 10%”. For the same compound, in experiment [1], the inhibition at 10 µM was determined as 5%.

As for `O=c1oc2cc(O)ccc2cc1-c1ccc(Cl)cc1` [Comp. Example 2, reference compound], the “maximum inhibition ratio of 12-lipoxygenase” value in experiment [1] (listed as Comparative Example 2, 10 µM) is reported as “less than 10%”. For the same compound, the inhibition at 10 µM in experiment [1] amounted to 7%.

In the case of `O=c1oc2c(O)c(O)ccc2c(-c2ccccc2)c1-c1ccccc1` [Comp. Example 4, reference compound], the IC50 in experiment [1] (setting [3]) was 0.12 µM.

For the compound `O=c1oc2c(O)c(O)ccc2cc1-c1ccc(O)cc1` [Comp. Example 5, reference compound], the “12-lipoxygenase inhibitory activity (in words)” value in experiment [1] is reported as “decreases greatly”. Also, the IC50 in experiment [1] (setting [3]) worked out at 1.1 µM.

For `O=c1oc2cc(O)c(O)cc2cc1-c1ccc(Br)cc1` [Example 1], the IC50 came to 0.0044 µM in experiment [1] (setting [4]) and 0.19 µM in experiment [2].

Regarding `O=c1oc2c(O)c(O)ccc2cc1-c1ccc(Cl)cc1` [Example 4, 3-(4-chlorophenyl)-7,8-dihydroxycoumarin], the IC50 in experiment [1] (setting [3]) is 0.0076 µM and ~0.001 µM; in experiment [1] (setting [4]) it was 0.0076 µM; in experiment [1] (setting [5]) it was 0.0076 µM; in experiment [2], 0.48 µM.

For the compound `Cc1c(-c2ccc(Cl)cc2)c(=O)oc2cc(O)c(O)cc12` [Example 5, 3-(4-chlorophenyl)-4-methyl-6,7-dihydroxycoumarin], the IC50 in experiment [1] (setting [3]) turned out to be 0.0092 µM; in experiment [1] (setting [4]), 0.0092 µM; in experiment [1] (setting [5]), 0.0092 µM; in experiment [2] it was 0.41 µM.

Regarding `O=c1oc2cc(O)c(O)cc2cc1-c1ccccc1` [Example 6, 3-phenyl-6,7-dihydroxycoumarin], the IC50 in experiment [1] (setting [4]) is 0.016 µM; in experiment [2] it was 0.27 µM.

`O=c1oc2cc(O)c(O)cc2cc1-c1ccc(F)cc1` [Example 7]: the IC50 is 0.008 µM in experiment [1] (setting [4]) and 0.4 µM in experiment [2].

With `O=c1oc2cc(O)c(O)cc2cc1-c1ccc(Cl)cc1` [Example 8, 3-(4-chlorophenyl)-6,7-dihydroxycoumarin], the IC50 in experiment [1] (setting [3]) is 0.007 µM and ~0.001 µM; in experiment [1] (setting [4]), 0.007 µM; in experiment [1] (setting [5]), 0.007 µM; in experiment [2], 0.26 µM.

In the case of `O=c1oc2cc(O)c(O)cc2cc1-c1cccc(Cl)c1` [Example 9, 3-(3-chlorophenyl)-6,7-dihydroxycoumarin], the results for the IC50 in experiment [1] (setting [4]), in experiment [1] (setting [5]) and in experiment [2] were 0.0043 µM, 0.0043 µM and 0.16 µM, respectively.

For `O=c1oc2cc(O)c(O)cc2cc1-c1ccc(I)cc1` [Example 10, 3-(4-iodophenyl)-6,7-dihydroxycoumarin], the values for the IC50 in experiment [1] (setting [4]), in experiment [1] (setting [5]) and in experiment [2] were 0.0058 µM, 0.0058 µM and 0.14 µM, respectively.

For the compound `Cc1ccc(-c2cc3cc(O)c(O)cc3oc2=O)cc1` [Example 11], the IC50 was 0.011 µM in experiment [1] (setting [4]) and 0.18 µM in experiment [2].

`Cc1cccc(-c2cc3cc(O)c(O)cc3oc2=O)c1` [Example 12]: the values for the IC50 in experiment [1] (setting [4]) and in experiment [2] were 0.011 µM and 0.28 µM, respectively.

Consider `O=c1oc2cc(O)c(O)cc2cc1-c1ccc(C(F)(F)F)cc1` [Example 14, 3-(4-trifluoromethylphenyl)-6,7-dihydroxycoumarin], for which the IC50 in experiment [1] (setting [4]) came to 0.013 µM; in experiment [2] it was 0.27 µM.

Turning to `O=c1oc2cc(O)c(O)cc2cc1-c1cccs1` [Example 15, 3-(thiophen-2-yl)-6,7-dihydroxycoumarin], the IC50 came out at 0.021 µM in experiment [1] (setting [4]) and 0.33 µM in experiment [2].

As to `O=c1oc2cc(O)c(O)cc2cc1-c1ccsc1` [Example 16], the IC50 turned out to be 0.022 µM in experiment [1] (setting [4]) and 0.42 µM in experiment [2].

Turning to `CCc1ccc(-c2cc3ccc(O)c(O)c3oc2=O)cc1` [Example 19], the IC50 in experiment [1] (setting [4]) came out at 0.014 µM; in experiment [2], 0.25 µM.

Consider `O=c1oc2c(O)c(O)ccc2cc1-c1cccc(Cl)c1` [Example 22, 3-(3-chlorophenyl)-7,8-dihydroxycoumarin], for which the results for the IC50 in experiment [1] (setting [4]), in experiment [1] (setting [5]) and in experiment [2] were 0.0096 µM, 0.0096 µM and 0.27 µM, respectively.

On to `O=c1oc2c(O)c(O)ccc2cc1-c1ccc([N+](=O)[O-])cc1` [Example 23, 3-(4-nitrophenyl)-7,8-dihydroxycoumarin], for which the IC50 was found to be 0.034 µM in experiment [1] (setting [4]) and 0.53 µM in experiment [2].

For `O=c1oc2c(O)c(O)ccc2cc1-c1ccc(Br)cc1` [Example 25, 3-(4-bromophenyl)-7,8-dihydroxycoumarin], the values for the IC50 in experiment [1] (setting [4]) and in experiment [2] were 0.013 µM and 0.42 µM, respectively.

Regarding `COc1ccc(-c2cc3ccc(O)c(O)c3oc2=O)cc1` [Example 27, 3-(4-methoxyphenyl)-7,8-dihydroxycoumarin], the IC50 in experiment [1] (setting [4]) was 0.027 µM; in experiment [2] it was 0.66 µM.
